Experimental data taken from patent US20180127360A1 (Elé Corporation, priority 2016, published 2018).

Test: Surface tension, du Nouy ring interfacial tensiometer
Assay type: physicochemical
Settings: 25° C.
Description: Surface tension measurements were taken on solutions made from the mixture prepared in Example 1(C) using a du Nouy ring interfacial tensiometer, equipped with a six-cm circumference platinum-iridium ring. A series of test solutions at different concentrations were prepared and their surface tension measured at 25° C. For each test concentration, the ring is slowly drawn out of the liquid. The surface tension is equal to the force required to draw the ring completely out of the liquid, divided by twice the circumference of the ring. […] The surface tension at the CMC was 29.6 dyne/cm.

CCCCCCCCCCCCNCCC(=O)O.N=C(N)NCCCC(N)C(=O)O [Example 1(C)]
surface tension at the CMC: 29.6 dyne/cm
Critical Micelle Concentration (CMC) (series of test solutions at different concentrations): 2.46 millimoles per liter
